According to patent US20230075521A1, “RESVERATROL PHARMACEUTICAL COMPOSITIONS AND METHODS OF USE THEREOF” (priority 2021, published 2023):
Where “and” joins values, the source holds several entries; their conditions need not be identical. Identical values can stand only once.

What was measured:
Format in all cases: in vivo, 3×Tg-AD mouse
[1] = system: AD-related gene expression; experiment: RT-qPCR of brain regions, long-term treatment; details: 3×Tg-AD mice, 50 mg/kg, 9 months
Procedure: (§1) At study endpoints (age 15 months for sub-chronic study, age 13 months for long-term study), mice were anaesthetized with isoflurane and blood was collected by transcardial puncture. Blood was stored on ice and then centrifuged at 10,000×g at 4° C. for 10 min to collect serum and stored at −80° C. until use. The brain was then extracted and quickly dissected on ice to collect prefrontal cortex (PFC), hippocampus, entorhinal cortex (ERC), and cerebellum, which were immediately frozen in liquid nitrogen. The samples were stored at −80° C. until processed for RNA or protein extraction. For each mouse, brain regions from one hemisphere were used for RNA preparation and qPCR and sections from the other hemisphere were used for protein work including ELISAs.

[2] = system: ERC cytokines and chemokines; experiment: Entorhinal cortex (ERC) cytokine and chemokine levels (48-Plex ProcartaPlex, Luminex)
Procedure: as §1
Protein lysates were extracted by sonicating tissue in M-PER Mammalian Protein Extraction Reagent (Thermo Fisher Scientific) supplemented with protease inhibitor (Thermo Fisher Scientific) and phosphatase inhibitor (Thermo Fisher Scientific). Total protein was quantified using Pierce BCA Protein Assay Kit (Thermo Fisher Scientific) and read at 562 nm using EnVision (Perkin Elmer).
(§2) Human Aβ1-42, Aβ1-40, phosphorylated tau Ser 396, phosphorylated tau Thr181, and total tau were measured in brain tissue by enzyme linked immuno-sorbent assay (ELISA; Invitrogen by Thermo) and normalized to total protein. All the kits were used as per the manufacturer's instructions and measured using the EnVision® multimode plate reader (Perkin Elmer). Serum and brain tissue protein extracts were analyzed for cytokine and chemokine levels using the Immune Monitoring 48-Plex Mouse ProcartaPlex™ Panel (Invitrogen by Thermo) according to manufacturer's standard protocol and read using Luminex xMAP (multi-analyte profiling) technology.

[3] = system: serum cytokines and chemokines; experiment: Serum cytokine and chemokine levels (48-Plex ProcartaPlex, Luminex); details: female 3×Tg-AD mice; 50 mg/kg oral, 9 months
Procedure: as §1, §2

[4] = female 3×Tg-AD mice, 50 mg/kg oral, 9 months
[5] = female 3×Tg-AD mice, 50 mg/kg oral, 9 months, 50 mg/kg
[6] = male 3×Tg-AD mice, 50 mg/kg oral, 9 months
[7] = male 3×Tg-AD mice, 50 mg/kg oral, 9 months, 50 mg/kg

Oc1ccc(/C=C/c2cc(O)cc(O)c2)cc1 [RSV, (trans-)resveratrol]
Adam10 expression in PFC, increase vs vehicle [1]: 20.44%
IFNg ERC level, change vs vehicle [2, 4]: -0.64 pg/mL
IL-1b ERC level, change vs vehicle [2, 4]: -1.12 pg/mL
IL-2 ERC level, change vs vehicle [2, 4]: 18.07 pg/mL
IL-2RA ERC level, change vs vehicle [2, 4]: -0.95 pg/mL
IL-3 ERC level, change vs vehicle [2, 4]: -0.34 pg/mL
IL-5 ERC level, change vs vehicle [2, 4]: -6.60 pg/mL
IL-9 ERC level, change vs vehicle [2, 4]: 7.25 pg/mL
IL- 10 ERC level, change vs vehicle [2, 4]: 0.54 pg/mL
IL-12p70 ERC level, change vs vehicle [2, 4]: 1.75 pg/mL
IL-13 ERC level, change vs vehicle [2, 4]: 1.74 pg/mL
IL-17A ERC level, change vs vehicle [2, 4]: 0.69 pg/mL
IL-22 ERC level, change vs vehicle [2, 4]: -0.13 pg/mL
IL-25/IL-17 ERC level, change vs vehicle [2, 4]: -23.30 pg/mL
IL-27 ERC level, change vs vehicle [2, 4]: -0.87 pg/mL
IL-33 ERC level, change vs vehicle [2, 4]: -56.09 pg/mL
LIX ERC level, change vs vehicle [2, 4]: -12.67 pg/mL
M-CSF ERC level, change vs vehicle [2, 4]: -0.32 pg/mL
MCP-3 ERC level, change vs vehicle [2, 4]: 1.94 pg/mL
MIP-2 ERC level, change vs vehicle [2, 4]: -2.59 pg/mL
RANTES ERC level, change vs vehicle [2, 4]: -1.97 pg/mL
TNFa ERC level, change vs vehicle [2, 4]: -10.12 pg/mL
VEGF-A ERC level, change vs vehicle [2, 4]: 4.80 pg/mL
sRANKL ERC level, change vs vehicle [2, 4]: 0.70 pg/mL
IL-6 ERC level, change vs vehicle [2, 5]: 5.44 ± 2.1 pg/mL and 5.44 pg/mL
IL-7 ERC level, change vs vehicle [2, 5]: 40.12 ± 15.04 pg/mL and 40.12 pg/mL
IL-18 ERC level, change vs vehicle [2, 5]: -84.91 ± 35.55 pg/mL and -84.91 pg/mL
IL-19 ERC level, change vs vehicle [2, 5]: 105.7 ± 22.58 pg/mL and 105.70 pg/mL
IL-23 ERC level, change vs vehicle [2, 5]: 42.53 ± 10.42 pg/mL and 42.53 pg/mL
IL-28 ERC level, change vs vehicle [2, 5]: 146.9 ± 34.42 pg/mL and 146.90 pg/mL
IP-10 ERC level, change vs vehicle [2, 5]: 21.13 ± 4.32 pg/mL and 21.13 pg/mL
IFNg ERC level, change vs vehicle [2, 6]: 1.51 pg/mL
IL-1b ERC level, change vs vehicle [2, 6]: 0.97 pg/mL
IL-2 ERC level, change vs vehicle [2, 6]: 31.55 pg/mL
IL-3 ERC level, change vs vehicle [2, 6]: 0.18 pg/mL
IL-5 ERC level, change vs vehicle [2, 6]: 3.37 pg/mL
IL-6 ERC level, change vs vehicle [2, 6]: 2.70 pg/mL
IL-7 ERC level, change vs vehicle [2, 6]: 41.08 pg/mL
IL-9 ERC level, change vs vehicle [2, 6]: 19.29 pg/mL
IL-12p70 ERC level, change vs vehicle [2, 6]: 0.61 pg/mL
IL-13 ERC level, change vs vehicle [2, 6]: 5.16 pg/mL
IL-17A ERC level, change vs vehicle [2, 6]: 2.77 pg/mL
IL-18 ERC level, change vs vehicle [2, 6]: 42.33 pg/mL
IL-19 ERC level, change vs vehicle [2, 6]: 104.30 pg/mL
IL-22 ERC level, change vs vehicle [2, 6]: 2.18 pg/mL
IL-23 ERC level, change vs vehicle [2, 6]: 41.51 pg/mL
IL-25/IL-17 ERC level, change vs vehicle [2, 6]: 15.36 pg/mL
IL-27 ERC level, change vs vehicle [2, 6]: 2.75 pg/mL
IL-28 ERC level, change vs vehicle [2, 6]: 130.90 pg/mL
IL-33 ERC level, change vs vehicle [2, 6]: 64.64 pg/mL
IP-10 ERC level, change vs vehicle [2, 6]: 13.80 pg/mL
LIX ERC level, change vs vehicle [2, 6]: 16.39 pg/mL
M-CSF ERC level, change vs vehicle [2, 6]: 0.50 pg/mL
MCP-3 ERC level, change vs vehicle [2, 6]: 0.76 pg/mL
RANTES ERC level, change vs vehicle [2, 6]: 1.40 pg/mL
TNFa ERC level, change vs vehicle [2, 6]: 23.73 pg/mL
VEGF-A ERC level, change vs vehicle [2, 6]: 3.55 pg/mL
sRANKL ERC level, change vs vehicle [2, 6]: 2.59 pg/mL
IL-2RA ERC level, change vs vehicle [2, 7]: 0.77 ± 0.043 pg/mL and 0.77 pg/mL
MIP-2 ERC level, change vs vehicle [2, 7]: 7.51 ± 2.55 pg/mL and 7.51 pg/mL
IL-9 in ERC, increase vs vehicle ([2]; males and females combined): 65.4 ± 25.69 pg/mL
BAFF serum level, change vs vehicle [3]: 22.01 pg/mL
G-CSF serum level, change vs vehicle [3]: -0.68 pg/mL
IFNg serum level, change vs vehicle [3]: 1.06 pg/mL
IL-1b serum level, change vs vehicle [3]: 0.80 pg/mL
IL-2RA serum level, change vs vehicle [3]: -71.13 pg/mL
IL-3 serum level, change vs vehicle [3]: 0.15 pg/mL
